Here are results for 2 compounds from US9469854B2, “Pharmaceutical composition for treating liver diseases” (Academia Sinica, priority 2014, dated 2016).

The test system of one series is hsa-miR-21-3p. Description: miRNA microarray profiling of berberine-treated primary human hepatocytes. The series is classed as cell-based. As to conditions: PHHs from 3 donors, 40 μM berberine, 2 h.
A further series has as its system ACACA. Description: qRT-PCR mRNA expression in HepG2 cells. As to conditions: HepG2, mimic transfection, 24 h. The series is classed as cell-based, human. Here is the method:
The human HepG2 cells and HEK 293T cells used in the following examples were originally obtained from the American Tissue Culture Collection (ATCC, USA). The human HCC HepG2 cell line was cultured in Minimum Essential Medium Eagle (Sigma) supplemented with 10% fetal bovine serum (FBS) (Invitrogen), 2.2 g/L of sodium bicarbonate (Sigma), 0.1 mM of non-essential amino acids (Caisson), 1 mM of sodium pyruvate (Invitrogen), and 10 of ml/L penicillin-streptomycin-amphotericin solution (Biological Industries). Human HEK-293T cells were maintained in high-glucose Dulbecco's modified eagle medium (Invitrogen) supplemented with 10% FBS and 3.7 g/L of sodium bicarbonate (Sigma). Both cell lines were cultured at 37° C. and 5% CO2. A 50 mM stock solution of berberine chloride (Sigma-Aldrich) was prepared in dimethyl sulfoxide (DMSO). Cells were treated with 40 μM of berberine chloride or 0.08% DMSO as the control. For induction of lipid droplets formation in cultured cells, 200 μM of oleic acid (Sigma-Aldrich) was added into the culture medium for 24 h. Total RNA was extracted using a TRIZOL reagent (Invitrogen) according to the manufacturer's protocol. The total RNA quantity was measured using a NanoDrop ND-1000 spectrophotometer (Nanodrop Technologies). The total RNA quality and integrity were assayed using an Agilent 2100 bioanalyzer with an RNA 6000 nano kit (Agilent Technologies). Total RNAs (1 μg) were reverse-transcribed into cDNA by using M-MuLV Reverse Transcriptase (Thermo) and Oligo(dT)12-18 primers (Invitrogen) according to the manufacturer's protocol. The cDNA were then used for a real-time PCR with a LightCycler 480 SYBR Green I Master (Roche) by using primers shown in the following Table 1. The gene expression levels were normalized to GAPDH levels. […] Cells were incubated for 24 h or 48 h with a microRNA mimic or inhibitor prior to RNA purification for gene expression analysis, and were incubated for 72 h for protein expression analysis.
A general note: Real-time PCR tracks product formation cycle by cycle.

The next series relates to MAT2A 3′ UTR. Description: Dual luciferase reporter assay in HEK 293T cells. The series is classed as cell-based, human. On the procedure: (§1) Full-length 3′ UTRs of MAT2A and MAT2B were amplified from the genomic DNA of HepG2 cells through PCR.
(§2) The PCR products were then cloned into the pMIR-REPORT Luciferase miRNA Expression Reporter Vector (Invitrogen), and all inserted sequences in the 3′ UTR constructs were checked using the ABI PRISM DNA sequencer.
(§3) The mutagenesis of the target sequences of hsa-miR-21-3p in MAT2A and MAT2B 3′ UTRs was performed using the QuikChange site-directed mutagenesis kit (Agilent) according to the manufacturer's standard protocol.
(§4) All mutated sequences, including Site 1, Site 2 and the double mutation of the MAT2A and the 3′ UTR mutant construct of MAT2B, were checked through DNA sequencing.
(§5) The HEK-293T and HepG2 cells were seeded at a density of 5×10^4 cells per well in a 24-well culture plate the day before transfection. The HEK-293T and HepG2 cells were tri-transfected with (1) any one of the above-mentioned pMIR-REPORT-3′ UTR construction (300 ng), (2) the control Renilla luciferase reporter plasmid pRL-TK from Promega (10 ng), and (3) 50 nM of hsa-miR-21-3p mimic or negative-control mimic by using the Lipofectamine 2000 transfection reagent (Invitrogen) according to the manufacturer's instructions. Luciferase assays were performed after transfection for 48 h by using the Dual Luciferase reporter assay kit (Promega) and the Paradigm detection platform (Beckman) according to the manufacturer's protocol. The firefly luciferase activity was normalized relative to the Renilla luciferase activity.

In a further series the test system is MAT2B 3′ UTR. Description: Dual luciferase reporter assay in HEK 293T cells. The format is cell-based, human. On the procedure: as §1, §2, §3, §4, §5
On the technique in general: A reporter such as luciferase makes a cellular process visible.

The test system of a further series is HepG2 cells. Description: Apoptosis (sub-G1 population) by flow cytometry with PI staining. The series is classed as cell-based, human. Particulars: HepG2, 50 nM mimic transfection 72 h vs NC mimic. On the procedure: After transfection with 50 nM of hsa-miR-21-3p mimic or the negative-control mimic for 72 h, the HepG2 cells were trypsinized and counted. Apoptosis was detected by measuring the sub-G1 population by using flow cytometry with propidium iodide (PI) staining. In brief, the cells were fixed in 70% ethanol on ice for 15 min, and stained with the PI staining solution (20 μg/mL PI, 0.1% Triton-X 100, and 0.2 mg/mL RNase A in PBS) for 30 min at room temperature and analyzed using CyAn ADP (Beckman Coulter) flow cytometry with Summit software.

Series [1] has as its system intracellular malonyl-CoA. Description: Measurement of intracellular malonyl-CoA concentration in HepG2 cells. The series is classed as cell-based, human. As to conditions: HepG2, 72-h mimic transfection. On the procedure: After transfection with 50 nM of miR-21-3p mimic or the negative-control mimic for 72 h, the PHH cells and HepG2 cells were trypsinized. The intracellular malonyl-CoA concentration was measured using the malonyl-CoA ELISA Kit (MyBioSource) according to the manufacturer's instructions.

In the next series the test system is exon 23 of ACACB. Description: Reporter examination of miR-21-3p and ACACB (technology similar to Example 6). The format is cell-based, human. Here is the method:
as §5

Where [2] appears, read: wild-type 3′ UTR, 50 nM mimic, 48 h.

Procedure for hsa-miR-21-3p: The primary human hepatocytes from Caucasian donors were purchased from Invitrogen and cultured following the manufacturer's instructions. The hepatocytes were thawed and transferred into cryopreserved hepatocytes recovery medium (CM7000, Invitrogen), centrifuging at room temperature, 100×g for 10 min. Then, the hepatocytes were diluted to seeding density with plating medium (CM3000, Invitrogen) and added into collagen I-coated plates (Invitrogen). These plates were incubated at 37° C. for 4-6 hours under 5% CO2 for forming a monolayer. Then, plating medium was replaced by overlay incubation medium (CM4000 and 0.35 mg/mL Geltrex™ Matrix, Invitrogen), and the incubation medium was replaced daily. In the following examples, hepatocytes form 3 to 4 donors were used for experiments.
A 50 mM stock solution of berberine chloride (Sigma-Aldrich) was prepared in dimethyl sulfoxide (DMSO). […]
Total RNA was extracted using a TRIZOL reagent (Invitrogen) according to the manufacturer's protocol. The total RNA quantity was measured using a NanoDrop ND-1000 spectrophotometer (Nanodrop Technologies). […]
The miRNA profiling was performed using an Agilent human miRNA Microarray R14 V2 containing 866 human miRNAs. […] Microarrays were scanned following the Agilent microarray scanner protocol, and image analysis and quantification were performed using the Agilent Feature Extraction software (Agilent Technologies). […]

With `COc1ccc2cc3[n+](cc2c1OC)CCc1cc2c(cc1-3)OCO2` [berberine], the “hsa-miR-21-3p expression increase (miRNA microarray), mean” value with hsa-miR-21-3p stood at 3.36 fold.
With “hsa-miR-21-3p (CAACACCAGUCGAUGGGCUGU; listed as RNA, chemistry not given here) [miR-21-3p mimic]”, the “decrease in mRNA expression of ACACA” value with ACACA is on record as 44%. The “luciferase reporter expression decrease, Site 1 mutated MAT2A 3′ UTR” value in the series on MAT2A 3′ UTR (Site 1 (+180-200) mutated) amounted to 1.5 fold. For the same compound, the “luciferase reporter expression decrease, MAT2A 3′ UTR” value in the series on MAT2A 3′ UTR (setting [2]) is given as 1.6 fold. Also, the “luciferase reporter expression change, mutated MAT2B 3′ UTR” value in the series on MAT2B 3′ UTR (seed match (+399-418) mutated) is listed as “remained unchanged”. The “luciferase reporter expression decrease, MAT2B 3′ UTR” value in the series with MAT2B 3′ UTR (setting [2]) worked out at 2.3 fold. The “apoptosis (sub-G1 population)” value in the series with HepG2 cells is “induced apoptosis”. Further, the “intracellular malonyl-CoA concentration decrease” value in series [1] is 1.6 fold. The “suppression of ACACB expression by binding exon 23” value in the series with exon 23 of ACACB turned out to be 1.4 fold.
